This is an account of results in patent US5521173A, “Tricyclic benzazepine vasopressin antagonists” (American Home Products Corporation, priority 1995, dated 1996).

Structures are written as SMILES.

The target of test [1] is T1, Vasopressin V1 receptor subtype in Human Platelet Membranes (Homo sapiens, UniProt P37288).
T1 construct: tissue Hudson Valley Blood Services, Westchester Medical Center, Valhalla, N.Y; host or cells: human platelets (frozen platelet rich plasma)
Description: Binding to Vasopressin V1 receptor subtype in Human Platelet Membranes. On the procedure: Radioligand Binding Experiments with Human Platelet Membranes
(a) Platelet Membrane Preparation
Frozen platelet rich plasma (PRP), (Platelet Source: Hudson Valley Blood Services, Westchester Medical Center, Valhalla, N.Y.) are thawed to room temperature. The tubes containing the PRP are centrifuged at 16,000×g for 10 min. at 4° C. and the supernatant fluid discarded. The platelets resuspended in an equal volume of 50.0 mM Tris.HCl, pH 7.5 containing 120 mM NaCl and 20.0 mM EDTA. The suspension is recentrifuged at 16,000× g for 10 min. This washing step is repeated one more time. The wash discarded and the lysed pellets homogenized in low ionic strength buffer of Tris.HCl, 5.0 mM, pH 7.5 containing 5.0 mM EDTA. The homogenate is centrifuged at 39,000× g for 10 min. The resulting pellet is resuspended in Tris.HCl buffer, 70.0 mM, pH 7.5 and recentrifuged at 39,000× g for 10 min. The final pellet is resuspended in 50.0 mM Tris.HCl buffer pH 7.4 containing 120 mM NaCl and 5.0 mM KCl to give 1.0-2.0 mg protein per ml of suspension.
(b) Binding to Vasopressin V1 receptor subtype in Human Platelet Membranes
In wells of a 96 well format microtiter plate, add 100 μl of 50.0 mM Tris.HCl buffer containing 0.2% BSA and a mixture of protease inhibitors (aprotinin, leupeptin etc.). Then add 20 μl of [^3 H]Ligand (Manning or Arg^8 Vasopressin), to give final concentrations ranging from 0.01 to 10.0 nM. Initiate the binding by adding 80.0 μl of platelet suspension (approx. 100 μg protein). Mix all reagents by pipetting the mixture up and down a few times. Non specific binding is measured in the presence of 1.0 µM of unlabeled ligand (Manning or Arg^8 Vasopressin). Let the mixture stand undisturbed at room temperature for ninety (90) min. Upon this time, rapidly filter off the incubate under vacuum suction over GF/B filters, using a Brandel Harvester. Determine the radioactivity caught on the filter disks by the addition of liquid scintillant and counting in a liquid scintillator.

The target of test [2] is T2, oxytocin receptors (Rattus norvegicus, UniProt P70536).
T2 construct: The uteri are dissected out, cleaned of fat and connective tissues; from tissue; host or cells: uteri of DES-treated female Sprague-Dawley rats
T2 sequence (P70536 1-388): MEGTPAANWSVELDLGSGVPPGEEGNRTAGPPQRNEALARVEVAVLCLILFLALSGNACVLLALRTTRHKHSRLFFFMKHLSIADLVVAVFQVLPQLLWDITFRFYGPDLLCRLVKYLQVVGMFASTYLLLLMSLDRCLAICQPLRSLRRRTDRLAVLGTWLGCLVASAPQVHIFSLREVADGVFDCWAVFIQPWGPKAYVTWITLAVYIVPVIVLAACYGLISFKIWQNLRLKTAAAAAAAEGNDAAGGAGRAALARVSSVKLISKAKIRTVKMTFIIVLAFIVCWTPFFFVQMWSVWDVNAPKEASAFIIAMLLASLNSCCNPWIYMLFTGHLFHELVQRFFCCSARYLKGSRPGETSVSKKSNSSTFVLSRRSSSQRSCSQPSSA
Kind of test: Oxytocin Receptor Binding. Also noted: species or system rat (female Sprague-Dawley). To be noted: for IC50: 1.0 nM [3H]OT. On the procedure: Oxytocin Receptor Binding
Female Sprague-Dawley rats weighing approximately 200-250 g are injected intramuscularly (i.m.) with 0.3 mg/kg of body weight of diethylstilbestrol (DES). The rats are sacrificed 18 hours later under pentobarbital anesthesia. The uteri are dissected out, cleaned of fat and connective tissues and rinsed in 50 ml of normal saline. The tissue pooled from six rats is homogenized in 50 ml of […] Tris.HCl, containing 0.5 mM dithiothreitol and 1.0 mM EDTA, adjusted to pH 7.4, using a polytron at setting 6 with three passes of 10 sec each. The homogenate is passed through two (2) layers of cheesecloth and the filtrate centrifuged at 1000× g for 10 min. The clear supernatant is removed and recentrifuged at 165,000× g for 30 min. The resulting pellet containing the oxytocin receptors is resuspended in 50.0 mM Tris.HCl containing 5.0 mM MgCl2 at pH 7.4, to give a protein concentration of 2.5 mg/ml of tissue suspension. This preparation is used in subsequent binding assays with [^3 H]Oxytocin.
Binding of 3,5-[^3 H]Oxytocin ([^3 H]OT) to its receptors is done in microtiter plates using [^3 H]OT, at various concentrations, in an assay buffer of 50.0 mM Tris.HCl, pH 7.4 and containing 5.0 mM MgCl2, and a mixture of protease inhibitors: BSA, 0.1 mg; aprotinin, 1.0 mg; 1,10-phenanthroline, 2.0 mg; […], 10.0 mg; and PMSF, 0.3 mg per 100 ml of buffer solution. Non-specific binding is determined in the presence of 1.0 uM unlabeled OT. The binding reaction is terminated after 60 min., at 22° C., by rapid filtration through glass fiber filters using a Brandel, cell harvester (Biomedical Research and Development Laboratories,Inc., Gaithersburg, Md.). Competition experiments are conducted at equilibrium using 1.0 nM [^3 H]OT and varying the concentration of the displacing agents. The concentrations of agent displacing 50% of [^3 H]OT at its sites (IC50) are calculated by a computer assisted LUNDON-2 program (LUNDON SOFTWARE INC., Ohio, USA).

The test system of test [3] is Vasopressin V2. Description: Vasopressin V2 Antagonist Activity in Conscious Hydrated Rats. Type of test: in vivo, rat. As to conditions: 10 mg/kg orally, AVP 0.4 μg/kg i.p.; for Osmolality: urine. On the procedure:
Two to four rats are used for each compound. One hour later, arginine vasopressin (AVP, antidiuretic hormore, ADH) dissolved in peanut oil is administered at 0.4 μg/kg intraperitoneally. Two rats in each test would not receive arginine vasopressin but only the vehicle (peanut oil) to serve as water-loading control. Twenty minutes later each rat is given 30 mL/kg of deionized water orally by gavage and is placed individually in a metabolic cage equipped with a funnel and a graduated glass cylinder to collect urine for four hours. Urine volume is measured and osmolality analyzed by use of a Fiske One-Ten osmometer (Fiske Assoc., Norwood, Mass., USA). Urinary sodium, potassium, and chloride are analyzed by use of ion-specific electrodes in a Beckman E3 (Electrolyte 3) Analyzer. In the following results, […] and decreased osmolality relative to AVP-control indicates activity.

The test system of test [4] is Vasopressin V1. Description: Vasopressin V1 Antagonist Activity in Conscious Rats (vasopressin vasopressor response). To be noted: for Max % Inhibition: vasopressin vasopressor response. The format is in vivo, rat. On the procedure:
Vasopressin V1 Antagonist Activity in Conscious Rats Conscious rats are restrained in a supine position with elastic tape. The area at the base of the tail is locally anesthetized by subcutaneous in filtration with 2% procaine (0.2 ml). Using aseptic technique the ventral caudal tail artery is isolated and a cannula made of PE 10 and 20 (heat-fused) tubing is passed into the lower abdominal aorta. The cannula is secured, heparinized (1000 i.u./cc), sealed and the wound closed with one or two stitches of Dexon 4-0. The caudal vein is also cannulated in the same manner for intravenous drug administration. The duration of the surgery is approximately 5 minutes. Additional local anesthesia (2% procaine or lidocaine) is provided as needed. The animals are placed in plastic restraining cages in an upright position. The cannula is attached to a Statham P23Db pressure transducer and pulsatile blood pressure is recorded. […] Percentage of antagonism by the compound is calculated using the pre-drug vasopressin vasopressor response as 100%. The results of this test on representative compounds of this invention in which the dose, the maximum % inhibition and the time in minutes, are shown in Table III.

T1 sequence (P37288 whole entry): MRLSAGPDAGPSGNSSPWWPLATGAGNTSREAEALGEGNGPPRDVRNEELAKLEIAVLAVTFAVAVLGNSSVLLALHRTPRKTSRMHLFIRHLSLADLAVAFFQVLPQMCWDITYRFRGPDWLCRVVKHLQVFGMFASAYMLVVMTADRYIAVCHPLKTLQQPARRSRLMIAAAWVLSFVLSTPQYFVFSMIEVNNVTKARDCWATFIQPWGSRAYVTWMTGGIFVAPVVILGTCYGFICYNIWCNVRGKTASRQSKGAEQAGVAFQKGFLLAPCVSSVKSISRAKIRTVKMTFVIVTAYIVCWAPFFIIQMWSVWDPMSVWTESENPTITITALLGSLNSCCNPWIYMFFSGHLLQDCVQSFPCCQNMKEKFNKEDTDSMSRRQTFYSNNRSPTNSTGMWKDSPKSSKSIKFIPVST

The IC50 is the concentration at which inhibition is half-maximal. Higher therefore signals weaker potency in that assay. Broadly, the inhibition is the relative decrease from the control value, in per cent. Read a high inhibition as a response far below the control. In test [1], `Cc1ccc(S(=O)(=O)c2ccc(C(=O)N3Cc4cccn4Cc4ccccc43)cc2)cc1` [Example 13, 10,11-Dihydro-10-[4-[(4-methylphenyl)sulfonyl]benzoyl]-5H-pyrrolo[2,1-c][1,4]benzodiazepine] showed an IC50 of 21 nM. In addition, testing at 10 µM in test [2] gave an inhibition of 67%. For the same compound, in test [3], the “Urine Volume” value stood at 5.5 ml/4 hrs and the Osmolality was 1380 mOsm/kg.

Consider `CN(C)Cc1ccc2n1Cc1ccccc1N(C(=O)c1ccc(-c3ccccc3)cc1)C2` [Example 20, 10-([1,1'-Biphenyl]-4-ylcarbonyl)-10,11-dihydro-N,N-dimethyl-5H-pyrrolo[2,1-c][1,4]benzodiazepine-3-methanamine], for which, in test [4] (10 mg/kg iv), the “Time (of maximum % inhibition)” value was 240 min and the “Max % Inhibition” value amounted to 61%. Also, the IC50 in test [1] is 13 nM. In test [2], this compound showed an inhibition at 10 µM of 100% and an IC50 of 110 nM. Also, in test [3], the “Urine Volume” value is on record as 3.5 ml/4 hrs and the Osmolality was found to be 1650 mOsm/kg.

For `O=C(c1ccccc1)c1ccc(C(=O)N2Cc3cccn3Cc3ccccc32)cc1` [Example 16, 10-(4-Benzoylbenzoyl)-10,11-dihydro-5H-pyrrolo[2,1-c][1,4]benzodiazepine], in test [4] (10 mg/kg iv), the “Time (of maximum % inhibition)” value worked out at 240 min and the “Max % Inhibition” value is 67%. For the same compound, in test [2], the inhibition at 10 µM stood at 100% and the IC50 stood at 110 nM. Moreover, in test [3], the “Urine Volume” value is on record as 6 ml/4 hrs and the Osmolality was found to be 1022 mOsm/kg.

Consider `C=CCOc1ccc(-c2ccc(C(=O)N3Cc4cccn4Cc4ccccc43)cc2)cc1` [Example 14, 10,11-Dihydro-10-[[4'-(2-propenyloxy)[1,1'-biphenyl]-4-yl]carbonyl]-5H-pyrrolo[2,1-c][1,4]benzodiazepine], for which, in test [4] (30 mg/kg iv), the “Time (of maximum % inhibition)” value came out at 90 min and the “Max % Inhibition” value was determined as 50%. In addition, the inhibition at 10 µM in test [2] was 67%. In test [3], the “Urine Volume” value stood at 4 ml/4 hrs and the Osmolality stood at 1247 mOsm/kg.

Consider `Cc1ccc(Sc2ccc(C(=O)N3Cc4cccn4Cc4ccccc43)cc2)cc1` [Example 11], for which, in test [4] (30 mg/kg iv), the “Time (of maximum % inhibition)” value turned out to be 300 min and the “Max % Inhibition” value was found to be 54%. In test [2], this compound had an inhibition at 10 µM of 86% and a 50% inhibitory concentration (IC50) of 1800 nM. In test [3], the “Urine Volume” value turned out to be 11 ml/4 hrs and the Osmolality came out at 825 mOsm/kg.

In the case of `O=C(c1ccc(S(=O)(=O)c2ccccc2)cc1)N1Cc2cccn2Cc2ccccc21` [Example 12], the inhibition at 10 µM in test [2] turned out to be 69%. Also, in test [3], the “Urine Volume” value worked out at 5.8 ml/4 hrs and the Osmolality worked out at 1254 mOsm/kg.

In test [2], `O=C(c1ccc(-c2nccs2)cc1)N1Cc2cccn2Cc2ccccc21` [Example 10, 10,11-Dihydro-10-[4-(2-thiazolyl)benzoyl]-5H-pyrrolo[2,1-c][1,4]benzodiazepine] displayed an inhibition at 10 µM of 77% and an IC50 of 2500 nM.

As for `O=C(c1ccc(-c2ccccc2)cc1)N1Cc2cccn2-c2ccccc21` [Example 17, 5-([1,1'-Biphenyl]-4-ylcarbonyl)-4,5-dihydropyrrolo[1,2-a]quinoxaline], in test [4] (30 mg/kg iv), the “Time (of maximum % inhibition)” value is 60 min and the “Max % Inhibition” value came out at 63%. Further, in test [2], at 10 µM the inhibition was 92% and the concentration for half-maximal inhibition (IC50) was found to be 1090 nM. For the same compound, in test [3], the “Urine Volume” value stood at 10.3 ml/4 hrs and the Osmolality came out at 929 mOsm/kg.

As to `O=C(c1ccc(C#Cc2ccccc2)cc1)N1Cc2cccn2Cc2ccccc21` [Example 4, 10,11-Dihydro-10-[4-(phenylethynyl)-5H-pyrrolo[2,1-c]1,4]benzodiazepine], in test [4] (30 mg/kg iv), the “Time (of maximum % inhibition)” value came to 90 min and the “Max % Inhibition” value is 30%. Besides, the inhibition at 10 µM in test [2] came out at 62%. In addition, in test [3], the “Urine Volume” value is 6.3 ml/4 hrs and the Osmolality was found to be 1033 mOsm/kg.

Turning to `O=C(c1ccc(-c2cccs2)cc1)N1Cc2cccn2Cc2ccccc21` [Example 1, 10,11-Dihydro-10-[4-(2-thienyl)benzoyl]-5H-pyrrolo[2,1-c][1,4]benzodiazepine], in test [4] (30 mg/kg po), the “Time (of maximum % inhibition)” value worked out at 120 min and the “Max % Inhibition” value is 53%. In test [3], the “Urine Volume” value amounted to 5 ml/4 hrs and the Osmolality turned out to be 1148 mOsm/kg.

In test [2], `O=C(c1ccc(Sc2ccccc2)cc1)N1Cc2cccn2Cc2ccccc21` [Example 15, 10,11-Dihydro-10-[4-(phenylthio)benzoyl]-5H-pyrrolo[2,1-c][1,4] benzodiazepine] registered an inhibition at 10 µM of 98% and an IC50 of 2100 nM. In test [3], the “Urine Volume” value is listed as 4 ml/4 hrs and the Osmolality is given as 1278 mOsm/kg.
